Source: patent US20260285850A1, “SUBSTITUTED OXAZOLIDINONES AND IMIDAZOLINONES AS HERBICIDES” (FMC CORPORATION, priority 2023, published 2026)

Legend:
Assay type in all cases: in vivo
[1] = system: ducksalad (Heteranthera limosa); test: Test B flooded paddy test, visual plant response rating 0-100; conditions: 250 g ai/ha, Flood, applied to paddy water, evaluated after 13 days
In short: (§1)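 Visual evaluation after 13 days. Water-applied treatment, 3 cm flood depth held constant, plants at 2-leaf stage at treatment.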

[2] = system: sedge, umbrella (small-flower umbrella sedge, Cyperus difformis); test: as above; conditions: 250 g ai/ha, Flood, applied to paddy water, evaluated after 13 days
In short: as §1

[3] = system: barnyardgrass (Echinochloa crusgalli); test: as above; conditions: 250 g ai/ha, Flood, applied to paddy water, evaluated after 13 days
In short: as §1

rice (Oryza sativa) = test: as above; conditions: 250 g ai/ha, Flood, applied to paddy water, evaluated after 13 days
In short: as §1

[4] = system: barnyardgrass (Echinochloa crus-galli); test: Test A preemergence soil spray, visual injury rating 0-100; conditions: 10 days, 0 = no effect, 100 = complete control
In short: (§2)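 Preemergence directed soil spray or postemergence spray (2-10 cm, 1-2 leaf); loam/sand mix; compound in non-phytotoxic solvent + surfactant. Greenhouse, 10 d. Visual injury vs untreated, 0 = none, 100 = complete control.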

[5] = system: oat, wild (wild oat, Avena fatua); test: as above; conditions: 10 days, 0 = no effect, 100 = complete control
In short: as §2

soybean (Glycine max) [6] = test: as above; conditions: 10 days, 0 = no effect, 100 = complete control
In short: as §2

corn (Zea mays) [7] = test: as above; conditions: 10 days, 0 = no effect, 100 = complete control
In short: as §2

[8] = system: wheat (Triticum aestivum); test: as above; conditions: 10 days, 0 = no effect, 100 = complete control
In short: as §2

[9] = system: ryegrass, Italian (italian ryegrass, Lolium multiflorum); test: as above; conditions: 10 days, 0 = no effect, 100 = complete control
In short: as §2

[10] = system: green foxtail (Setaria viridis); test: as above; conditions: 10 days, 0 = no effect, 100 = complete control
In short: as §2

[11] = system: blackgrass (Alopecurus myosuroides); test: as above; conditions: 10 days, 0 = no effect, 100 = complete control
In short: as §2

kochia (Bassia scoparia) [12] = test: as above; conditions: 10 days, 0 = no effect, 100 = complete control
In short: as §2

[13] = system: palmer (palmer amaranth, palmer pigweed, Amaranthus palmeri); test: as above; conditions: 10 days, 0 = no effect, 100 = complete control
In short: as §2

[14] = system: ragweed (common ragweed, Ambrosia artemisiifolia); test: as above; conditions: 10 days, 0 = no effect, 100 = complete control
In short: as §2

[15] = system: barnyardgrass (Echinochloa crus-galli); test: Test A postemergence application, visual injury rating 0-100; conditions: 10 days
In short: as §2

[16] = system: oat, wild (wild oat, Avena fatua); test: as above; conditions: 10 days
In short: as §2

soybean (Glycine max) [17] = test: as above; conditions: 10 days
In short: as §2

corn (Zea mays) [18] = test: as above; conditions: 10 days
In short: as §2

[19] = system: wheat (Triticum aestivum); test: as above; conditions: 10 days
In short: as §2

[20] = system: ryegrass, Italian (italian ryegrass, Lolium multiflorum); test: as above; conditions: 10 days
In short: as §2

[21] = system: green foxtail (Setaria viridis); test: as above; conditions: 10 days
In short: as §2

[22] = system: blackgrass (Alopecurus myosuroides); test: as above; conditions: 10 days
In short: as §2

[23] = system: horseweed (Erigeron canadensis); test: as above; conditions: 10 days
In short: as §2

[24] = system: galium (catchweed bedstraw, Galium aparine); test: as above; conditions: 10 days
In short: as §2

kochia (Bassia scoparia) [25] = test: as above; conditions: 10 days
In short: as §2

[26] = system: palmer (palmer amaranth, palmer pigweed, Amaranthus palmeri); test: as above; conditions: 10 days
In short: as §2

[27] = system: ragweed (common ragweed, Ambrosia artemisiifolia); test: as above; conditions: 10 days
In short: as §2

[28] = 31 g ai/ha, postemergence, 0 = no effect, 100 = complete control
[29] = Postemergence, 125 g ai/ha, 0 is no effect, 100 is complete control

COC(=O)C1CC(NC(=O)C2(C)CN(c3cc(F)cc(F)c3)C(=O)O2)CO1 (stereo not shown) [Compound 29]
Plant response rating, Ducksalad (0 to 100 scale, 0 is no effect and 100 is complete control) [1]: 0
Plant response rating, Sedge, Umbrella (0 to 100 scale, 0 is no effect and 100 is complete control) [2]: 0
Plant response rating, Barnyardgrass (0 to 100 scale, 0 is no effect and 100 is complete control) [3]: 0
Plant response rating, Rice (0 to 100 scale, 0 is no effect and 100 is complete control) (rice (Oryza sativa)): 0
Barnyardgrass plant response rating (0-100) ([4]; 31 g ai/ha): 0
Barnyardgrass plant response rating (0 to 100 scale) ([4]; 125 g ai/ha): 20
Oat, Wild plant response rating (0-100) ([5]; 31 g ai/ha): 0
Oat, Wild plant response rating (0 to 100 scale) ([5]; 125 g ai/ha): 60
Soybean plant response rating (0-100) (soybean (Glycine max) [6]; 31 g ai/ha): 0
Soybean plant response rating (0 to 100 scale) (soybean (Glycine max) [6]; 125 g ai/ha): 0
Corn plant response rating (0-100) (corn (Zea mays) [7]; 31 g ai/ha): 0
Corn plant response rating (0 to 100 scale) (corn (Zea mays) [7]; 125 g ai/ha): 0
Wheat plant response rating (0-100) ([8]; 31 g ai/ha): 0
Wheat plant response rating (0 to 100 scale) ([8]; 125 g ai/ha): 80
Ryegrass, Italian plant response rating (0-100) ([9]; 31 g ai/ha): 0
Ryegrass, Italian plant response rating (0 to 100 scale) ([9]; 125 g ai/ha): 30
Foxtail, Green plant response rating (0-100) ([10]; 31 g ai/ha): 0
Foxtail, Green plant response rating (0 to 100 scale) ([10]; 125 g ai/ha): 0
Blackgrass plant response rating (0-100) ([11]; 31 g ai/ha): 0
Blackgrass plant response rating (0 to 100 scale) ([11]; 125 g ai/ha): 50
Kochia plant response rating (0-100) (kochia (Bassia scoparia) [12]; 31 g ai/ha): 0
Kochia plant response rating (0 to 100 scale) (kochia (Bassia scoparia) [12]; 125 g ai/ha): 0
Amaranth, Palmer plant response rating (0-100) ([13]; 31 g ai/ha): 0
Amaranth, Palmer plant response rating (0 to 100 scale) ([13]; 125 g ai/ha): 0
Ragweed plant response rating (0-100) ([14]; 31 g ai/ha): 0
Ragweed plant response rating (0 to 100 scale) ([14]; 125 g ai/ha): 0
Barnyardgrass plant response rating (0-100) [15, 28]: 10
Barnyardgrass plant response rating (0 to 100 scale) [15, 29]: 80
Oat, Wild plant response rating (0-100) [16, 28]: 80
Oat, Wild plant response rating (0 to 100 scale) [16, 29]: 90
Soybean plant response rating (0-100) (soybean (Glycine max) [17]; [28]): 0
Soybean plant response rating (0 to 100 scale) (soybean (Glycine max) [17]; [29]): 50
Corn plant response rating (0-100) (corn (Zea mays) [18]; [28]): 0
Corn plant response rating (0 to 100 scale) (corn (Zea mays) [18]; [29]): 70
Wheat plant response rating (0-100) [19, 28]: 80
Wheat plant response rating (0 to 100 scale) [19, 29]: 90
Ryegrass, Italian plant response rating (0-100) [20, 28]: 50
Ryegrass, Italian plant response rating (0 to 100 scale) [20, 29]: 90
Foxtail, Green plant response rating (0-100) [21, 28]: 0
Foxtail, Green plant response rating (0 to 100 scale) [21, 29]: 80
Blackgrass plant response rating (0-100) [22, 28]: 90
Blackgrass plant response rating (0 to 100 scale) [22, 29]: 90
Horseweed plant response rating (0-100) [23, 28]: 0
Horseweed plant response rating (0 to 100 scale) [23, 29]: 20
Galium plant response rating (0-100) [24, 28]: 50
Galium plant response rating (0 to 100 scale) [24, 29]: 80
Kochia plant response rating (0-100) (kochia (Bassia scoparia) [25]; [28]): 20
Kochia plant response rating (0 to 100 scale) (kochia (Bassia scoparia) [25]; [29]): 40
Amaranth, Palmer plant response rating (0-100) [26, 28]: 0
Amaranth, Palmer / Pigweed, Palmer plant response rating (0 to 100 scale) [26, 29]: 60
Ragweed plant response rating (0-100) [27, 28]: 30
Ragweed plant response rating (0 to 100 scale) [27, 29]: 30
